# Results as given in publication PMC4687028 (Journal of medicinal chemistry, 2015).
# What was measured:
# [1] = molecular target: T1, recombinant human aromatase (CYP19) (Homo sapiens, UniProt P11511); assay: Inhibition of recombinant human aromatase; assay type: biochemical
# T1 sequence (P11511 1-503): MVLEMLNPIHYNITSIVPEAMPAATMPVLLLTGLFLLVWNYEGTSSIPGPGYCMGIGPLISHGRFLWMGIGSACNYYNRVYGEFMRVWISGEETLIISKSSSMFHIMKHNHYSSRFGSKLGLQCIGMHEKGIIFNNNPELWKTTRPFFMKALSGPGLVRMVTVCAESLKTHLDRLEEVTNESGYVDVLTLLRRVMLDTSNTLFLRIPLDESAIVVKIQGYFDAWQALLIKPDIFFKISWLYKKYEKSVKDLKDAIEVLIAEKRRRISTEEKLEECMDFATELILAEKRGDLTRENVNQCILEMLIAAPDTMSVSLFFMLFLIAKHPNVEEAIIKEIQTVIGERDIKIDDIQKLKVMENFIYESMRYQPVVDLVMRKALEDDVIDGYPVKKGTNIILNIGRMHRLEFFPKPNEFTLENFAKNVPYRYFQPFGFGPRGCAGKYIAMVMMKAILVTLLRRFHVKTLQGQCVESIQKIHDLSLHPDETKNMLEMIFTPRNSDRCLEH
# [2] = molecular target: T2, Recombinant CYP2A6 (Homo sapiens, UniProt P11509); assay: Inhibition of recombinant CYP2A6; assay type: biochemical
# T2 sequence (P11509 1-494): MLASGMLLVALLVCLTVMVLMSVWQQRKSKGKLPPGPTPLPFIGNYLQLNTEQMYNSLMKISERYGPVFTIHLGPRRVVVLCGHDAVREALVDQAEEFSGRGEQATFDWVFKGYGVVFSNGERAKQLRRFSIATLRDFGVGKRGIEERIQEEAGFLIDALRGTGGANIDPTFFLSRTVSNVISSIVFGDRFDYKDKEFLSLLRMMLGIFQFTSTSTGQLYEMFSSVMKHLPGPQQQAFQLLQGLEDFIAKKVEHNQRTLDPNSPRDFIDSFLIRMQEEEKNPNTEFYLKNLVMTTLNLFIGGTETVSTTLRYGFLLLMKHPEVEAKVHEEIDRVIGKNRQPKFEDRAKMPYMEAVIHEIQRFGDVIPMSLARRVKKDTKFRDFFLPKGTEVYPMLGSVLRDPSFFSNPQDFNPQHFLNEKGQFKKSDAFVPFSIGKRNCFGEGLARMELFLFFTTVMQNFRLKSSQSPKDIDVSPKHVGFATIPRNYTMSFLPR
# [3] = molecular target: T3, recombinant human ER-α (Homo sapiens, UniProt P03372); assay: ER-α competitor binding assay, fluorescence polarization, displacement of ES2; conditions: at the concentration of 100,000 nM
# T3 sequence (P03372 1-595): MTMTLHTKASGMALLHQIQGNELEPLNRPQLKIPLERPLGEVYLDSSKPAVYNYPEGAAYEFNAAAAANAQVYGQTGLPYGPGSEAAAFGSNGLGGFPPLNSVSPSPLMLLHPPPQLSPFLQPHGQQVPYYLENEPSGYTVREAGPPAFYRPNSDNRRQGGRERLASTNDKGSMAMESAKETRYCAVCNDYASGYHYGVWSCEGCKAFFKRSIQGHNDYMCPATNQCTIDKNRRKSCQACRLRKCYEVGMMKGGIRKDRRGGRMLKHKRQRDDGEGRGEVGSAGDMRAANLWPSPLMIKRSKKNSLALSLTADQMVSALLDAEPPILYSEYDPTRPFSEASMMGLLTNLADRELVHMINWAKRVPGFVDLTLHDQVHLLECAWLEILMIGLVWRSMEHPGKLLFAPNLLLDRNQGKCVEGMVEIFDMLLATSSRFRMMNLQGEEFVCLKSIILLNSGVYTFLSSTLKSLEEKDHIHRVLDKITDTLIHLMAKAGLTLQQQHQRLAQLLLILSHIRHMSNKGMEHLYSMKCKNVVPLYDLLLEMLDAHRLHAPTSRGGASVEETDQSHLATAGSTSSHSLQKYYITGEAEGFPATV
# [4] = molecular target: Recombinant CYP2D6 (Homo sapiens, UniProt P10635); conditions: previously published; cited from earlier work
# Sequence of Recombinant CYP2D6 (P10635 whole entry): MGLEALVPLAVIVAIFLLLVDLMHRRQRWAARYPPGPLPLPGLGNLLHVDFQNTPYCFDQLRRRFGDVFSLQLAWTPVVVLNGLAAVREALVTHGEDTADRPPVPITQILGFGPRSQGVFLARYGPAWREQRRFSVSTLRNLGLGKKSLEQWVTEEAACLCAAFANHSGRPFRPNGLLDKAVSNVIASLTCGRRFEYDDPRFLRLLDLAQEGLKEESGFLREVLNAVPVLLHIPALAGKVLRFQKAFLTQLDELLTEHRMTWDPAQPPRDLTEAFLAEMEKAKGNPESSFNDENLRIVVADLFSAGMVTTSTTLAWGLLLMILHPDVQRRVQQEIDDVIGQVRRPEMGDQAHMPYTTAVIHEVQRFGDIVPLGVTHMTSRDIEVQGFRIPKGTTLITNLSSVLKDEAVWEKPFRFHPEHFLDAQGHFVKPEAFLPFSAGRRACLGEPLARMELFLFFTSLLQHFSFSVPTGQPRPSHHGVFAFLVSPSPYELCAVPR
SMILES,"Percent ER competition, ER-α [3]",other results
"CC/C(=C(/c1ccc(O)cc1)c1ccc(OCCN)cc1)c1ccc(O)cc1 [Compound 10, 4,4'-(1-(4-(2-Aminoethoxy)phenyl)but-1-ene-1,2-diyl)diphenol]",,"Potency against aromatase (CYP19) relative to norendoxifen ([1]; Ki 20.0 nM versus Ki […] nM): 4 fold; Selectivity toward CYP19 versus all other CYP P450 enzymes tested ([1]; other than CYP1A2, from Ki values): > 21 fold; IC50 [2]: 6.73 ± 0.66 µM"
"CC/C(=C(/c1ccccc1)c1ccc(OCCN)cc1)c1ccccc1 [Compound 18, 2-(4-(1,2-Diphenylbut-1-en-1-yl)phenoxy)ethan-1-amine]",0% competition,
"N#CC/C(=C(/c1ccc(O)cc1)c1ccc(OCCN)cc1)c1ccccc1 [Compound 40, 4-(4-(2-Aminoethoxy)phenyl)-4-(4-hydroxyphenyl)-3-phenylbut-3-enenitrile]",48% competition,
"NCCOc1ccc(/C(=C(\Cn2ccnc2)c2ccccc2)c2ccc(O)cc2)cc1 [Compound 41, 4-(1-(4-(2-Aminoethoxy)phenyl)-3-(1H-imidazol-1-yl)-2-phenylprop-1-en-1-yl)phenol]",59% competition,
"CC/C(=C(/c1ccc(O)cc1)c1ccc(OCC(=O)O)cc1)c1ccccc1 [Compound 49, 2-(4-(1-(4-Hydroxyphenyl)-2-phenylbut-1-en-1-yl)phenoxy)acetic Acid]",55% competition,
CC/C(=C(/c1ccc(O)cc1)c1ccc(OCCN)cc1)c1ccccc1 [Norendoxifen],,Recombinant CYP2D6 IC50 (nM) [4]: No inhibition; Recombinant CYP2D6 Ki (nM) [4]: No inhibition

# Second part, led by results:
"Percent ER competition, ER-α [3]",SMILES,other results
54% competition,"CC(C)/C(=C(/c1ccc(O)cc1)c1ccc(OCCN)cc1)c1ccccc1 [Compound 29d, 4-(1-(4-(2-Aminoethoxy)phenyl)-3-methyl-2-phenylbut-1-enyl)phenol]",
62% competition,"CC/C(=C(/c1ccc(O)cc1)c1ccc(OCCO)cc1)c1ccccc1 [Compound 48, 4-(1-(4-(2-Hydroxyethoxy)phenyl)-2-phenylbut-1-en-1-yl)phenol]",
60% competition,"CC/C(=C(/c1ccc(O)cc1)c1ccc(OCCBr)cc1)c1ccccc1 [Compound 50, 4-(1-(4-(2-Bromoethoxy)phenyl)-2-phenylbut-1-en-1-yl)phenol]",
62% competition,"CC/C(=C(/c1ccc(O)cc1)c1ccc(OCCCl)cc1)c1ccccc1 [Compound 55a, 4-(1-(4-(2-Chloroethoxy)phenyl)-2-phenylbut-1-en-1-yl)phenol]",
